{
  "source": "patent US20240287172A1",
  "about": "“PROTEIN BINDERS TO IRHOM2 EPITOPES” (SCIRHOM GMBH, priority 2019, published 2024)",
  "key": {"[1]": {"tested_on": "LPS-induced release of endogenous TNFα from PBMCs from healthy donors", "experiment": "ELISA-based TNFα release assay, LPS-induced, PBMCs from healthy donors", "type": "cell-based", "conditions": "Homo sapiens, PBMC; LPS 50 ng/ml, 2 hours; recombinant murine antibodies and IgG at 1 μg/ml; Batimastat at 10 μM", "procedure": "(§1) In brief, on day 1, Nunc black MaxiSorp® 96-well plates (Thermo Fisher Scientific, USA) were coated overnight with 100 μl per well of mouse anti-human TNFα capture antibody (provided as part of the DuoSet ELISA kit) at 4 μg/ml TBS at 4° C. On day 2, the capture antibody solution was removed and MaxiSorp® plates were blocked with 300 μl per well of TBS, 1% BSA at room temperature for 3 hours. Meanwhile, 20,000 PBMC from healthy donors (STEMCELL Technologies, Canada) cells in 80 μl of normal growth medium were seeded in each well of Greiner CELLSTAR V-bottom 96-well plates (Thermo Fisher Scientific, USA) and pre-incubated with 20 μl per well of standard growth medium supplemented with Batimastat (BB94, Abcam, UK) at 50 μM as positive control (for a final concentration of 10 μM in the resulting 100 μl sample volume), mouse IgG antibody (Thermo Fisher Scientific, USA) at 5 μg/ml as isotype control (for a final concentration of 1 μg/ml in the resulting 100 μl sample volume) or antibodies of the invention at 5 μg/ml (for a final concentration of 1 μg/ml in the resulting 100 μl sample volume) at 37° C., 5% CO2 for 30 minutes. […] Using an infinite M1000 (Tecan Group, Switzerland) microplate reader, the fluorescence of each well was collected at an excitation wavelength of 435 nm and an emission wavelength of 555 nm."}, "[2]": {"tested_on": "PMA-induced release of endogenous HB-EGF from PBMCs from healthy donors", "experiment": "ELISA-based HB-EGF release assay, PMA-induced, PBMCs from healthy donors", "type": "cell-based", "conditions": "Homo sapiens, PBMC; PMA 25 ng/ml, 6 hours; recombinant murine antibodies and IgG at 1 μg/ml; Batimastat at 10 μM", "procedure": "as §1, with “HB-EGF” for “TNFα”, “80,000” for “20,000”"}},
  "data": [
    {"smiles": "CNC(=O)[C@H](Cc1ccccc1)NC(=O)[C@H](CC(C)C)[C@H](CSc1cccs1)C(=O)NO", "note": "[Batimastat]", "values": [
      {"measurement": "inhibition at 10 µM", "setting": "[1]", "value": 99.6, "unit": "%"},
      {"measurement": "inhibition at 10 µM", "setting": "[2]", "value": 94.9, "unit": "%"}
    ]}
  ]
}
